Patent US9765075B2, “Substituted bridged urea analogs as sirtuin modulators” (GLAXOSMITHKLINE LLC, priority 2013, dated 2017)
Like-named read-outs stand apart in the source and are kept apart here.

Target: T1, SIRT1 (Homo sapiens, UniProt Q96EB6)
T1 sequence (Q96EB6 1-747): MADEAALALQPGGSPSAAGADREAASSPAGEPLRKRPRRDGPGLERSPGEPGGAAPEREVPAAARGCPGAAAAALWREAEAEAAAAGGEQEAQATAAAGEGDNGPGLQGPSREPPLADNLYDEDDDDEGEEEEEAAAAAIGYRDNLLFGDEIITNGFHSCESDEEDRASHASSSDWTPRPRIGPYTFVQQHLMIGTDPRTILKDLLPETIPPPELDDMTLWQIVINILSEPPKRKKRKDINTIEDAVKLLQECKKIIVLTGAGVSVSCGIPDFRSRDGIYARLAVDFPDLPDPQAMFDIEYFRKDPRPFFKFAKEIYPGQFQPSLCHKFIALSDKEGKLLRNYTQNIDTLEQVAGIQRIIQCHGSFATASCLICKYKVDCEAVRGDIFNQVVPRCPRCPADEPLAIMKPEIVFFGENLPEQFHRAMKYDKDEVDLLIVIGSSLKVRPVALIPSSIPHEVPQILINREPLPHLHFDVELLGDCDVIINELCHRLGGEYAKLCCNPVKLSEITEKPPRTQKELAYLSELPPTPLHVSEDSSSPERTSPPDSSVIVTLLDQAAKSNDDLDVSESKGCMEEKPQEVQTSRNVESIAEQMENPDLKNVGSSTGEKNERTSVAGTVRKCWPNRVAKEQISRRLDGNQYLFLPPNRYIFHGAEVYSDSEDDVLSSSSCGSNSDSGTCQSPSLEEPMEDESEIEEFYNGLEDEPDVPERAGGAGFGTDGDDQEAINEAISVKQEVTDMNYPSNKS
Experiment: Trp mass spectrometry assay (SIRT1 activation)
Assay type: biochemical
Conditions: for Emax: percent maximum fold activation of SIRT1, read-out: Tryp % Fold Act
How it was run: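 N-His-tagged SIRT1 (10 nM), expressed in E. coli, was incubated with 0.5 μM Ac-RHKK(Ac)W-NH2 peptide and 120 μM NAD+ for 25 min at 25 °C in HEPES pH 7.5 with […]. The reaction was stopped with formic acid and O-acetyl-ADP-ribose or deacetylated peptide was quantified by mass spectrometry. Results are given as EC1.5 and percent maximal activation relative to DMSO control.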

[1] = concentration of test compound that results in 150% activation of SIRT1, Trp peptide substrate
[2] = Trp mass spectrometry assay, EC1.5 = concentration giving 150% activation of SIRT1
[3] = Trp mass spectrometry assay, EC1.5 = concentration of test compound that results in 150% activation of SIRT1

| SMILES | Tryp AVG EC1.5 (μM) [1] | Emax (Trp peptide substrate) | Tryp AVG EC1.5 (μM) [2] | Emax (Trp mass spectrometry assay) | Tryp AVG EC1.5 (μM) [3] |
| --- | --- | --- | --- | --- | --- |
| O=C(Nc1ccc(F)cn1)N1c2nc(-c3cncc(Cl)c3)ccc2N2CC[C@H]1C2 [Example 261] | A (EC1.5<1 μM) | ≥ 150% |  |  |  |
| C#CCOc1cccc(NC(=O)N2c3nc(-c4ccc(C5(C(F)(F)F)N=N5)cc4)ccc3N3CC[C@H]2C3)c1 [Example 802] |  |  | B (EC1.5 1-25 μM) | ≥ 150% |  |
| COc1cc(NC(=O)N2c3nc(-c4cccc(C(F)(F)F)c4)ccc3N3CC[C@H]2C3)ncn1 [Example 34] |  |  |  | ≥ 150% |  |
| CN(C)c1cccc(-c2ccc3c(n2)N(C(=O)Nc2ccccn2)[C@@H]2CCCN3C2)c1 [Example 251] | C (EC1.5>25 μM) | ≥ 150% |  |  |  |
| COc1cc(NC(=O)N2c3nc(-c4cccc(CC(O)CO)c4)ccc3N3CC[C@H]2C3)ncn1 (some centres unmarked) [Example 355] | B (EC1.5 1-25 μM) | ≥ 150% |  |  |  |
| Cn1nccc1-c1cccc(NC(=O)N2c3nc(-c4cccc(C(F)(F)F)c4)ccc3N3CC[C@H]2C3)n1 [Example 623] | A (EC1.5<1 μM) | ≥ 150% |  |  |  |
| O=C(Nc1cccnc1)N1c2nc(N3CCCC(C(F)(F)F)C3)ccc2N2CCC[C@H]1C2 (some centres unmarked) [Example 288] | A (EC1.5<1 μM) | ≥ 150% |  |  |  |
| O=C(Nc1ccc(F)cn1)N1c2nc(-c3cncc(F)c3)ccc2N2CCC[C@H]1C2 [Example 431] | A (EC1.5<1 μM) | ≥ 150% |  |  |  |
| O=C(Nc1ccccn1)N1c2nc(-c3cncc(F)c3)ccc2N2CCC1CC2 [Example 570] | B (EC1.5 1-25 μM) | ≥ 150% |  |  |  |
| O=C(Nc1cccc(-c2ccccc2)c1)N1c2nc(-c3cccc(C(F)(F)F)c3)ccc2N2CC[C@H]1C2 [Example 625] |  |  | A (EC1.5<1 μM) | ≥ 150% |  |
| CCN(CC)C(=O)N1c2nc(-c3cccc(C(F)(F)F)c3)ccc2N2CC[C@H]1C2 [Example 52] |  |  |  | < 150% | C (EC1.5>25 μM) |
| O=C(Nc1cnccn1)N1c2nc(-c3cncc(C(F)(F)F)c3)ccc2N2C[C@@H](O)[C@H]1C2 [Example 695] |  |  | B (EC1.5 1-25 μM) | ≥ 150% |  |
| O=C(Nc1cccnc1)N1c2nc(-c3cccc(N4CCCC4)c3)ccc2N2CC[C@H]1C2 [Example 192] |  |  |  | ≥ 150% | B (EC1.5 1-25 μM) |
| O=C(Nc1cccc(-c2cnco2)c1)N1c2nc(N3CCCC(C(F)(F)F)C3)ccc2N2CCC[C@H]1C2 (some centres unmarked) [Example 285] | A (EC1.5<1 μM) | ≥ 150% |  |  |  |
| Cc1c(-c2ccc3c(n2)N(C(=O)Nc2ccccn2)[C@H]2CCN3C2)cnn1C [Example 531] | B (EC1.5 1-25 μM) | ≥ 150% |  |  |  |
| O=C(Nc1ccc(F)cn1)N1c2nc(-c3cncc(C(F)(F)F)c3)ccc2N2CC[C@H]1C2 [Example 277] | A (EC1.5<1 μM) | ≥ 150% |  |  |  |
| O=C(NCc1ccccc1)N1c2nc(-c3cccc(C(F)(F)F)c3)ccc2N2CC[C@H]1C2 [Example 597] | B (EC1.5 1-25 μM) | ≥ 150% |  |  |  |
| O=C(Nc1cccc(-c2cnco2)c1)N1c2nc(N3CCC[C@H](C(F)(F)F)C3)ccc2N2CC[C@H]1C2 [Example 718] |  |  | A (EC1.5<1 μM) | ≥ 150% |  |
| Cc1cc(-c2ccc3c(n2)N(C(=O)Nc2ccc(F)cn2)[C@H]2CCN3C2)ccn1 [Example 223] | A (EC1.5<1 μM) | ≥ 150% |  |  |  |
| NCc1cnnn1-c1cccc(NC(=O)N2c3nc(-c4cccc(C(F)(F)F)c4)ccc3N3CC[C@H]2C3)c1 [Example 640] |  |  | A (EC1.5<1 μM) | ≥ 150% |  |
| NCCCCCC(=O)NCc1cccc(NC(=O)N2c3nc(-c4cccc(C(F)(F)F)c4)ccc3N3CCC[C@H]2C3)c1 [Example 756] |  |  | A (EC1.5<1 μM) | ≥ 150% |  |
| NCCCc1ccc(NC(=O)N2c3nc(-c4cccc(C(F)(F)F)c4)ccc3N3CC[C@H]2C3)cc1-c1cnco1 [Example 765] |  |  | A (EC1.5<1 μM) | ≥ 150% |  |
| O=C1OCc2ccc(NC(=O)N3c4nc(-c5cccc(C(F)(F)F)c5)ccc4N4CC[C@H]3C4)cc21 [Example 93] |  |  |  | ≥ 150% | A (EC1.5<1 μM) |
| CCCCC(=O)c1cccc(NC(=O)N2c3nc(-c4cccc(C(F)(F)F)c4)ccc3N3CC[C@H]2C3)c1 [Example 737] |  |  | A (EC1.5<1 μM) | ≥ 150% |  |

| SMILES | Tryp AVG EC1.5 (μM) [1] | Emax (Trp peptide substrate) | Tryp AVG EC1.5 (μM) [2] | Emax (Trp mass spectrometry assay) | Tryp AVG EC1.5 (μM) [3] |
| --- | --- | --- | --- | --- | --- |
| O=C(Nc1ccc(F)cn1)N1c2nc(-c3ccnc(N4CCC(F)(F)C4)c3)ccc2N2CC[C@H]1C2 [Example 425] | A (EC1.5<1 μM) | ≥ 150% |  |  |  |
| Cc1cncc(-c2ccc3c(n2)N(C(=O)Nc2cncc(F)c2)[C@H]2CCCN3C2)c1 [Example 509] | A (EC1.5<1 μM) | ≥ 150% |  |  |  |
| CS(=O)(=O)c1cncc(-c2ccc3c(n2)N(C(=O)Nc2ccncn2)[C@H]2CCCN3C2)c1 [Example 379] | A (EC1.5<1 μM) | ≥ 150% |  |  |  |
| O=C(Nc1cccnc1)N1c2nc(-c3cccc(OC(F)(F)F)c3)ccc2N2CC[C@H]1C2 [Example 163] |  |  |  | ≥ 150% | A (EC1.5<1 μM) |
| N#Cc1cccc(-c2ccc3c(n2)N(C(=O)Nc2cccnc2)[C@H]2CCCN3C2)c1 [Example 350] | A (EC1.5<1 μM) | ≥ 150% |  |  |  |
| O=C(Nc1ccncn1)N1c2nc(-c3cccc(C(F)(F)F)c3)ccc2N2C[C@@H](O)[C@H]1C2 [Example 669] |  |  | B (EC1.5 1-25 μM) | ≥ 150% |  |
| COc1cc(NC(=O)N2c3nc(-c4ccnc(N5CCC(F)(F)C5)c4)ccc3N3CC[C@H]2C3)ncn1 [Example 390] | B (EC1.5 1-25 μM) | ≥ 150% |  |  |  |
| COc1cnc(NC(=O)N2c3nc(-c4ccnc(C)c4)ccc3N3CC[C@H]2C3)cn1 [Example 500] | A (EC1.5<1 μM) | ≥ 150% |  |  |  |
| O=C(Nc1ccncc1)N1c2nc(-c3cccc(C(F)(F)F)c3)ccc2N2CC[C@@H]1C2 [Example 824] |  |  | A (EC1.5<1 μM) | ≥ 150% |  |
| NCc1ccc(NC(=O)N2c3nc(-c4cccc(C(F)(F)F)c4)ccc3N3CC[C@H]2C3)cc1 [Example 429] | B (EC1.5 1-25 μM) | ≥ 150% |  |  |  |
| O=C(Nc1cccc(-c2cnco2)c1)N1c2nc(-c3cncc(F)c3)ccc2N2CCC1CC2 [Example 574] | A (EC1.5<1 μM) | ≥ 150% |  |  |  |
| O=C(Nc1cncc(OCC(O)CO)n1)N1c2nc(-c3cccc(Cl)c3)ccc2N2CC[C@H]1C2 (some centres unmarked) [Example 63] |  |  |  | ≥ 150% |  |
| Cc1cncc(-c2ccc3c(n2)N(C(=O)Nc2ccncn2)[C@H]2CCCN3C2)c1 [Example 517] | A (EC1.5<1 μM) | ≥ 150% |  |  |  |
| COc1cc(NC(=O)N2c3nc(-c4cccc(Cl)c4)ccc3N3C[C@@H](O)[C@H]2C3)nc(OC)n1 [Example 680] |  |  | B (EC1.5 1-25 μM) | ≥ 150% |  |
| CCn1ncc2c(NC(=O)N3c4nc(-c5cccc(C(F)(F)F)c5)ccc4N4CC[C@H]3C4)cccc21 [81 (9)] |  |  |  | ≥ 150% | A (EC1.5<1 μM) |
| Cc1csc(NC(=O)N2c3nc(N4CCCC(C(F)(F)F)C4)ccc3N3CCC[C@@H]2C3)n1 (some centres unmarked) [Example 312] | B (EC1.5 1-25 μM) | ≥ 150% |  |  |  |
| Cc1csc(NC(=O)N2c3nc(N4CCCC(C(F)(F)F)C4)ccc3N3CC[C@H]2C3)n1 (some centres unmarked) [Example 214] |  |  |  | ≥ 150% | A (EC1.5<1 μM) |
| O=C(NCCCCn1ccnc1)N1c2nc(-c3cccc(C(F)(F)F)c3)ccc2N2CC[C@H]1C2 [Example 689] |  |  | B (EC1.5 1-25 μM) | ≥ 150% |  |
| Cc1n[nH]cc1-c1ccc2c(n1)N(C(=O)Nc1ccccn1)[C@H]1CCN2C1 [Example 370] | B (EC1.5 1-25 μM) | ≥ 150% |  |  |  |
| O=C(Nc1cnccn1)N1c2nc(-c3cncc(F)c3)ccc2N2CC[C@H]1C2 [Example 400] | B (EC1.5 1-25 μM) | ≥ 150% |  |  |  |
| O=C(Nc1ccc(F)cn1)N1c2nc(-c3cccc(CC(O)CO)c3)ccc2N2CC[C@H]1C2 (some centres unmarked) [Example 356] | A (EC1.5<1 μM) | ≥ 150% |  |  |  |
| COc1cc(NC(=O)N2c3nc(-c4ccnc(N5CC[C@H](F)C5)c4)ccc3N3CC[C@H]2C3)ncn1 [Example 437] | B (EC1.5 1-25 μM) | ≥ 150% |  |  |  |
| Cn1cc(NC(=O)N2c3nc(-c4cccc(C#N)c4)ccc3N3CC[C@H]2C3)cn1 [Example 186] |  |  |  | ≥ 150% | B (EC1.5 1-25 μM) |
